Laboratory results published in the kinase profiling compilation of Christmann-Franck et al. (2016).

Experiments:
Test in all cases: KINOMEscan competition binding
PIK3CA (human) = PIK3CA (human) (UniProt P42336)
[1] = target: FLT3 (human), P36888 [ITD]
RPS6KA6 KD2 (human) = RPS6KA6 KD2 (human) (UniProt Q9UK32)
GSK3B (human) = GSK3B (human) (UniProt P49841)
[2] = target: PIK3CA (human), P42336 [E545K]
CDK8 (human) = CDK8 (human) (UniProt P49336)
ERBB4 (human) = ERBB4 (human) (UniProt Q15303)
PRKAA1 (human) = PRKAA1 (human) (UniProt Q13131)
PRKCQ (human) = PRKCQ (human) (UniProt Q04759)
LYN (human) = LYN (human) (UniProt P07948)
PRKD1 (human) = PRKD1 (human) (UniProt Q15139)
MAPK13 (human) = MAPK13 (human) (UniProt O15264)
MYLK (human) = MYLK (human) (UniProt Q15746)
PTK6 (human) = PTK6 (human) (UniProt Q13882)
YES1 (human) = YES1 (human) (UniProt P07947)
NTRK3 (human) = NTRK3 (human) (UniProt Q16288)
PAK2 (human) = PAK2 (human) (UniProt Q13177)
CDK17 (human) = CDK17 (human) (UniProt Q00537)
MAPK12 (human) = MAPK12 (human) (UniProt P53778)
[3] = target: JAK1 JH2 pseudokinase (human) (UniProt P23458)
LTK (human) = LTK (human) (UniProt P29376)
FRK (human) = FRK (human) (UniProt P42685)
BMP2K (human) = BMP2K (human) (UniProt Q9NSY1)
Chain of BMP2K (human) (Q9NSY1 whole entry, looked up): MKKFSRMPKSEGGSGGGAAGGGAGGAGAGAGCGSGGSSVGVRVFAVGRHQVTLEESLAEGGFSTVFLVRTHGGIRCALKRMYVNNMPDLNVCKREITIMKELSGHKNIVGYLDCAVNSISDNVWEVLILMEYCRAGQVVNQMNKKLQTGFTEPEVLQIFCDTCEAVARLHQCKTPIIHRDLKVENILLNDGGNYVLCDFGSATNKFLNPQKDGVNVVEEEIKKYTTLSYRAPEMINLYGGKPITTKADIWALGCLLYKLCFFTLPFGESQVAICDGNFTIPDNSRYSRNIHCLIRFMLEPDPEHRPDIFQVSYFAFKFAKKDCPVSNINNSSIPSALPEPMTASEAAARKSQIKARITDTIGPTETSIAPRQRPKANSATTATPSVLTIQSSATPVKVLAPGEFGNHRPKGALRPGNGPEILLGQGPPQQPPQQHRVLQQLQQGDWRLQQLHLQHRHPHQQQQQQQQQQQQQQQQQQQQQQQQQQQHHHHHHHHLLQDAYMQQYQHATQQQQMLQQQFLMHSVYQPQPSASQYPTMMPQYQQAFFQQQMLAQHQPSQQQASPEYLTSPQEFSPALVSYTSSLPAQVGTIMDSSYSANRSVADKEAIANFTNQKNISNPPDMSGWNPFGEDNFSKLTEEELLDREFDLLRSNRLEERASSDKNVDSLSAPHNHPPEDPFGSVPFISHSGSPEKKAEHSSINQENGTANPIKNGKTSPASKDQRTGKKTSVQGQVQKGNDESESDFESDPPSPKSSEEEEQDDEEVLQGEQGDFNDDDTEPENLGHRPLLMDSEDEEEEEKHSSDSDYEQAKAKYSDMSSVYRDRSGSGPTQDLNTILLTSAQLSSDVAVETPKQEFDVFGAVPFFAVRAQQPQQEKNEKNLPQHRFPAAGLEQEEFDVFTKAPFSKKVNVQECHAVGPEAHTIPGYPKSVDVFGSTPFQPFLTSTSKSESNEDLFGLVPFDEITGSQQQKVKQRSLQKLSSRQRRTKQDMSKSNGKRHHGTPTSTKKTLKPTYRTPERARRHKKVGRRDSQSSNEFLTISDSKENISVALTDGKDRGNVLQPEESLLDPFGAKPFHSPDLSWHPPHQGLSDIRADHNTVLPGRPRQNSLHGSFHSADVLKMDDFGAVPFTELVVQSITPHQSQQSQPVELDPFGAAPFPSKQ

PIM1 (human) = PIM1 (human) (UniProt P11309)
STK35 (human) = STK35 (human) (UniProt Q8TDR2)
CDK14 (human) = CDK14 (human) (UniProt O94921)
CLK1 (human) = CLK1 (human) (UniProt P49759)
Chain of CLK1 (human) (P49759 whole entry, looked up): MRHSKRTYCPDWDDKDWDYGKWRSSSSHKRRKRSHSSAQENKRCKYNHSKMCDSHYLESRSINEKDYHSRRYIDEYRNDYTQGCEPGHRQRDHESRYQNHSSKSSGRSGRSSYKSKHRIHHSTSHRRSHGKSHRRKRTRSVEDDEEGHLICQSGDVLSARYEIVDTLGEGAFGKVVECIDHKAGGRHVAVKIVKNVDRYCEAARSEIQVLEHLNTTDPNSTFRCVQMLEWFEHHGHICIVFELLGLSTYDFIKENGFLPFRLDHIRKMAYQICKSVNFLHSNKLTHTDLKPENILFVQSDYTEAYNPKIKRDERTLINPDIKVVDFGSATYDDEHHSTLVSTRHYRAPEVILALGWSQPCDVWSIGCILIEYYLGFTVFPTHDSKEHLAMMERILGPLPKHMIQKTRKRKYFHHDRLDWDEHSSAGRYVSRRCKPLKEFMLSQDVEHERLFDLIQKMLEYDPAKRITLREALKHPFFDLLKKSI

DYRK2 (human) = DYRK2 (human) (UniProt Q92630)
ALK (human) = ALK (human) (UniProt Q9UM73)
MLTK (human) = MLTK (human) (UniProt Q9NYL2)
PRKAA2 (human) = PRKAA2 (human) (UniProt P54646)
EPHA6 (human) = EPHA6 (human) (UniProt Q9UF33)
[4] = target: ABL1 (human), P00519 [E255K]
Chain of ABL1 (human), P00519 [E255K] (P00519 whole entry E255K, looked up): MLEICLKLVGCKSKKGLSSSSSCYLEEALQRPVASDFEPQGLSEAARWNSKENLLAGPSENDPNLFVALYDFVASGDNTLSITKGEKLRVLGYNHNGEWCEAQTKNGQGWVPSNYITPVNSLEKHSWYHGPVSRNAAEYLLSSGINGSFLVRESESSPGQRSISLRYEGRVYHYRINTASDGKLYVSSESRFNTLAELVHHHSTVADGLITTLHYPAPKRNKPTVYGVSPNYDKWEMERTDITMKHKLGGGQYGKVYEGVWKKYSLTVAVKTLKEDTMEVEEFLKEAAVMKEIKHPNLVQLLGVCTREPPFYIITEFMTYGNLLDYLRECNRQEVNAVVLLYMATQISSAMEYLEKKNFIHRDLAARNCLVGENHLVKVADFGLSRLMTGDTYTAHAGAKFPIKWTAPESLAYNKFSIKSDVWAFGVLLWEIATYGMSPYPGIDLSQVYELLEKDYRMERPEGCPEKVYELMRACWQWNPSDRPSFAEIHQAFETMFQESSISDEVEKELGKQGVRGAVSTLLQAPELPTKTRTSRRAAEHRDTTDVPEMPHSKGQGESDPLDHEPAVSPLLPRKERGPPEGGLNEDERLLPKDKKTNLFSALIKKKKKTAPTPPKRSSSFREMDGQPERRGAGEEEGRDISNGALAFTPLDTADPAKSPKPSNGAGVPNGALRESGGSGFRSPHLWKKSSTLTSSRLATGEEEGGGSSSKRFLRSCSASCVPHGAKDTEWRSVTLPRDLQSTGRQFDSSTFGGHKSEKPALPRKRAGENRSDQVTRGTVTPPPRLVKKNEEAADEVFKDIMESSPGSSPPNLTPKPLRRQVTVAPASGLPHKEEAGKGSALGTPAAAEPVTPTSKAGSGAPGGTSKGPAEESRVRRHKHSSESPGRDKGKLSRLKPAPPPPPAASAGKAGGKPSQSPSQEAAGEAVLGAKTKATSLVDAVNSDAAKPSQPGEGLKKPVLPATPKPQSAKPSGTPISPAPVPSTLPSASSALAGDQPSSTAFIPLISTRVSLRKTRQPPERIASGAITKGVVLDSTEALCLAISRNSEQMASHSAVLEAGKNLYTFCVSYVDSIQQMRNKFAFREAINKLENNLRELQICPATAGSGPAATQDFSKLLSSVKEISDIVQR

ERBB2 (human) = ERBB2 (human) (UniProt P04626)
Chain of ERBB2 (human) (P04626 whole entry, looked up): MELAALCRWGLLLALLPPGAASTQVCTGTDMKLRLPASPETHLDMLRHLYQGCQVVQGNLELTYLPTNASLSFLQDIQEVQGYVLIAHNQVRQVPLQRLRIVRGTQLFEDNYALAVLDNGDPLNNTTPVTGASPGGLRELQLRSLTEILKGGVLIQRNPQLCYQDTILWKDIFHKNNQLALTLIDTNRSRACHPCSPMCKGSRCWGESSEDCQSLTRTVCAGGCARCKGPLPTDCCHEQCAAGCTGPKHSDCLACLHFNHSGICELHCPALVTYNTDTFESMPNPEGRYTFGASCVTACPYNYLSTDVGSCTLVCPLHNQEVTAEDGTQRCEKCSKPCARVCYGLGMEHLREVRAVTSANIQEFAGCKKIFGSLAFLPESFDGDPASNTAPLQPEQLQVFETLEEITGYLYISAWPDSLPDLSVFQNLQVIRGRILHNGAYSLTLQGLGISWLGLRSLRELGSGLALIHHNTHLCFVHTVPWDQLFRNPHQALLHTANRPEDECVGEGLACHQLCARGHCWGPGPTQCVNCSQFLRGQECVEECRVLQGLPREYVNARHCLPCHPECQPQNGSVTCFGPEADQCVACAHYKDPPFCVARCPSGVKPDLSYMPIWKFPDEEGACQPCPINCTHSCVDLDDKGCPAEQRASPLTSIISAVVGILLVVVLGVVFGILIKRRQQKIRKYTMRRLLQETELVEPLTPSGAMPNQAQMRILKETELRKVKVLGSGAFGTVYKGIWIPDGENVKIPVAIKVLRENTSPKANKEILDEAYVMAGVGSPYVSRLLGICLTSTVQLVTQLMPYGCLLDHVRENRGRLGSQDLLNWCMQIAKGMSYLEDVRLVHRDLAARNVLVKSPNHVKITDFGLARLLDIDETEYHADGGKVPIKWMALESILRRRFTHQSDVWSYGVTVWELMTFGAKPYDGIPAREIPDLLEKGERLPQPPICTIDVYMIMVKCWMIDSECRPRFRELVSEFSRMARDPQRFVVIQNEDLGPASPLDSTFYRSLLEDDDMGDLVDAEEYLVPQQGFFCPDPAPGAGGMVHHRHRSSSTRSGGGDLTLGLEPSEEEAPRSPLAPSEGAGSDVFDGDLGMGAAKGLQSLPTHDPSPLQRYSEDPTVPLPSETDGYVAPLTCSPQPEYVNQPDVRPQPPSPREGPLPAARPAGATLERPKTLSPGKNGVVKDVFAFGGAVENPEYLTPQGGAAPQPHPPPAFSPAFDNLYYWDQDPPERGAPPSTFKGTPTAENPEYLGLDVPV

EPHB6 (human) = EPHB6 (human) (UniProt O15197)
MAP2K3 (human) = MAP2K3 (human) (UniProt P46734)
EPHB1 (human) = EPHB1 (human) (UniProt P54762)
LIMK1 (human) = LIMK1 (human) (UniProt P53667)
Chain of LIMK1 (human) (P53667 whole entry, looked up): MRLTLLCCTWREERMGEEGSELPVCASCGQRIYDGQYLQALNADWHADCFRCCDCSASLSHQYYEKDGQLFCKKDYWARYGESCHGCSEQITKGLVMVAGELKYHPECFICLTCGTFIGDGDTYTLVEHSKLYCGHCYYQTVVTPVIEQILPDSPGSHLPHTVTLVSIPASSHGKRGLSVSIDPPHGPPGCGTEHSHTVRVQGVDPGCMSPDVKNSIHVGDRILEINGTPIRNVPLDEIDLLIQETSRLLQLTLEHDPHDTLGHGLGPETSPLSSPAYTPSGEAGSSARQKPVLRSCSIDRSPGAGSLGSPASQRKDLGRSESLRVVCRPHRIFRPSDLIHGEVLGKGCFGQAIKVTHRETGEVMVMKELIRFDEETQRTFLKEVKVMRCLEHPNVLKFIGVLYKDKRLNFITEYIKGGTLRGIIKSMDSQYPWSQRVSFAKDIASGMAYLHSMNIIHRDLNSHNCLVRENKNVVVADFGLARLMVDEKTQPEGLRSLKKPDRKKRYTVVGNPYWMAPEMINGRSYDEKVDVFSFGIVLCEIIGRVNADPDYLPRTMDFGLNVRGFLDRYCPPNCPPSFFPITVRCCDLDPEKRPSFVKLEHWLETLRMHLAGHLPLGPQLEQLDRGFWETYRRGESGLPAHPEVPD

STK25 (human) = STK25 (human) (UniProt O00506)
Chain of STK25 (human) (O00506 whole entry, looked up): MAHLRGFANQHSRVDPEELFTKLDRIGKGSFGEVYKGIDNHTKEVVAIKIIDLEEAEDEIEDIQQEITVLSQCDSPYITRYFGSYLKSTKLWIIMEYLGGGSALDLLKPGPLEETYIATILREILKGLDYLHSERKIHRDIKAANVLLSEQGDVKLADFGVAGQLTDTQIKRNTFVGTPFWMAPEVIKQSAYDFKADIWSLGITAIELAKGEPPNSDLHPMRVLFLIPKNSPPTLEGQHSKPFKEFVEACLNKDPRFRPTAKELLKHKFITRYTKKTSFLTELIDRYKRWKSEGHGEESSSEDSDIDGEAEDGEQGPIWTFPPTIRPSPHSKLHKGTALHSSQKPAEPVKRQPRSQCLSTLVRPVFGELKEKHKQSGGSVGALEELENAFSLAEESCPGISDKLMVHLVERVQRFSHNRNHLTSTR

BRAF (human) = BRAF (human) (UniProt P15056)
ANKK1 (human) = ANKK1 (human) (UniProt Q8NFD2)

COc1cc2ncnc(Oc3cccc(NC(=O)Nc4cc(C(C)(C)C(F)(F)F)on4)c3)c2cc1OC
Kd (PIK3CA (human)): 27000 nM | Kd [1]: 22 nM | Kd (RPS6KA6 KD2 (human)): 6400 nM | Kd (GSK3B (human)): 29000 nM | Kd [2]: 29000 nM | Kd (CDK8 (human)): 1100 nM | Kd (ERBB4 (human)): 210 nM | Kd (PRKAA1 (human)): 8700 nM | Kd (PRKCQ (human)): 13000 nM | Kd (LYN (human)): 2 nM | Kd (PRKD1 (human)): 7300 nM | Kd (MAPK13 (human)): 390 nM | Kd (MYLK (human)): 27000 nM | Kd (PTK6 (human)): 200 nM | Kd (YES1 (human)): 160 nM | Kd (NTRK3 (human)): 2200 nM | Kd (PAK2 (human)): 34000 nM | Kd (CDK17 (human)): 630 nM | Kd (MAPK12 (human)): 1300 nM | Kd [3]: 33000 nM | Kd (LTK (human)): 1200 nM | Kd (FRK (human)): 9.6 nM | Kd (BMP2K (human)): 33000 nM | Kd (PIM1 (human)): 29000 nM | Kd (STK35 (human)): 470 nM | Kd (CDK14 (human)): 110 nM | Kd (CLK1 (human)): 10000 nM | Kd (DYRK2 (human)): 27000 nM | Kd (ALK (human)): 34000 nM | Kd (MLTK (human)): 8.2 nM | Kd (PRKAA2 (human)): 28000 nM | Kd (EPHA6 (human)): 5.5 nM | Kd [4]: 6.5 nM | Kd (ERBB2 (human)): 240 nM | Kd (EPHB6 (human)): 92 nM | Kd (MAP2K3 (human)): 31000 nM | Kd (EPHB1 (human)): 150 nM | Kd (LIMK1 (human)): 27000 nM | Kd (STK25 (human)): 19000 nM | Kd (BRAF (human)): 36 nM | Kd (ANKK1 (human)): 4600 nM
